Experiment in all cases: biochemical
What all share (type): binding

Test [1] deals with T1, ABL1 (Homo sapiens, UniProt P00519).
T1 construct: the DNA-tagged SH2 domain concentrations used in this study were <0.1 nM; made in house; host or cells: HEK293 (transient transfection; unpurified extract)
T1 sequence (P00519 127-217 limits assumed): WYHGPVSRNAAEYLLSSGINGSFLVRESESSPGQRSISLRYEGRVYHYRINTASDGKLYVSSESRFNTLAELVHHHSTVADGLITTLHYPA

Test [2] has as its target T2, BLNK (Homo sapiens, UniProt Q8WV28).
T2 construct: the DNA-tagged SH2 domain concentrations used in this study were <0.1 nM; made in house; host or cells: HEK293 (transient transfection; unpurified extract)
T2 sequence (Q8WV28 346-453 limits assumed): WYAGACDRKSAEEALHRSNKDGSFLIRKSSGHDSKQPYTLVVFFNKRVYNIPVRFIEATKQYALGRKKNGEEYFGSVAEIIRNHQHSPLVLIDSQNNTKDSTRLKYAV

Test [3] deals with T3, BRK (Homo sapiens, UniProt Q13882).
T3 construct: the DNA-tagged SH2 domain concentrations used in this study were <0.1 nM; made in house; host or cells: HEK293 (transient transfection; unpurified extract)
T3 sequence (Q13882 78-170 limits assumed): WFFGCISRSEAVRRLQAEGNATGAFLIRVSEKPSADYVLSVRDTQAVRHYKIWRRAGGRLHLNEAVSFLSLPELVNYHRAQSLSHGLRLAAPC

The target of test [4] is T4, CRK (Homo sapiens, UniProt P46108).
T4 construct: the DNA-tagged SH2 domain concentrations used in this study were <0.1 nM; made in house; host or cells: HEK293 (transient transfection; unpurified extract)
T4 sequence (P46108 13-118 limits assumed): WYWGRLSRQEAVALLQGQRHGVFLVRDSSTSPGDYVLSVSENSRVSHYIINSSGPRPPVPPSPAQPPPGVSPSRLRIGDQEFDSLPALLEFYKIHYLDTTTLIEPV

The target in test [5] is T5, GRB2 (Homo sapiens, UniProt P62993).
T5 construct: the DNA-tagged SH2 domain concentrations used in this study were <0.1 nM; made in house; host or cells: HEK293 (transient transfection; unpurified extract)
T5 sequence (P62993 60-152 limits assumed): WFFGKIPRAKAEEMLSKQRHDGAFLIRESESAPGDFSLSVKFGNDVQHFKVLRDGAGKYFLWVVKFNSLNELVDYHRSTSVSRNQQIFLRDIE
To be noted: for percent of DMSO vehicle control: primary screen, 10 μM.

In test [6] the target is T6, HCK (Homo sapiens, UniProt P08631).
T6 construct: the DNA-tagged SH2 domain concentrations used in this study were <0.1 nM; made in house; host or cells: HEK293 (transient transfection, unpurified extract)
T6 sequence (P08631 144-241 limits assumed): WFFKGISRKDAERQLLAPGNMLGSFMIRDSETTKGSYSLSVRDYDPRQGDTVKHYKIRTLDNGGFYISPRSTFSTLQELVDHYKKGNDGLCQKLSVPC

The target of test [7] is T7, HSH2D (Homo sapiens, UniProt Q96JZ2).
T7 construct: the DNA-tagged SH2 domain concentrations used in this study were <0.1 nM; made in house; host or cells: HEK293 (transient transfection, unpurified extract)
T7 sequence (Q96JZ2 34-125 limits assumed): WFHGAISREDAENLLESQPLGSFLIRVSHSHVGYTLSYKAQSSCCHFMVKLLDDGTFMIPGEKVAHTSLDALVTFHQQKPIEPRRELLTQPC

Test [8] deals with T8, ITK (Homo sapiens, UniProt Q08881).
T8 construct: the DNA-tagged SH2 domain concentrations used in this study were <0.1 nM; made in house; host or cells: HEK293 (transient transfection, unpurified extract)
T8 sequence (Q08881 239-338 limits assumed): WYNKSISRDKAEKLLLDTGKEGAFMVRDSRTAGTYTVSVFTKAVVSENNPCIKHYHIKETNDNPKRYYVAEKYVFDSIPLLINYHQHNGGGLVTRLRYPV
To be noted: primary screen, 10 μM.

In test [9] the target is T9, LYN (Homo sapiens, UniProt P07948).
T9 construct: the DNA-tagged SH2 domain concentrations used in this study were <0.1 nM; made in house; host or cells: HEK293 (transient transfection, unpurified extract)
T9 sequence (P07948 129-226 limits assumed): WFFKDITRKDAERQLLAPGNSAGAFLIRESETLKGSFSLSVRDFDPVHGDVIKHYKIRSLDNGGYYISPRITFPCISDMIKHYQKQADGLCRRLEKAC

Test [10] addresses T10, MIST (Homo sapiens, UniProt Q7Z7G1).
T10 construct: the DNA-tagged SH2 domain concentrations used in this study were <0.1 nM; made in house; host or cells: HEK293 (transient transfection, unpurified extract)
T10 sequence (Q7Z7G1 309-419 limits assumed): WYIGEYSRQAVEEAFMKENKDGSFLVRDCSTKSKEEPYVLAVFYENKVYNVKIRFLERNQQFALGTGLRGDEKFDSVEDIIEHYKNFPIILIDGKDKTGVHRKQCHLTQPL

Test [11] addresses T11, PIK3R1(SH2dom.N-term.) (Homo sapiens, UniProt P27986).
T11 construct: SH2dom.N-term. denotes SH2 domain closest to N-terminus of protein; made in house; host or cells: HEK293 (transient transfection, unpurified extract)

In test [12] the target is T12, PLCG2(SH2dom.C-term.) (Homo sapiens, UniProt P16885).
T12 construct: SH2dom.C-term. denotes SH2 domain closest to C-terminus of protein; made in house; host or cells: HEK293 (transient transfection, unpurified extract)
T12 sequence (P16885 646-735 limits assumed): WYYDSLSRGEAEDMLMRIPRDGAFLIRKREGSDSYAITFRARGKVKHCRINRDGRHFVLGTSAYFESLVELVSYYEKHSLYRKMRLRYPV

Test [13] concerns the target T13, PTPN6(SH2dom.N-term.) (Homo sapiens, UniProt P29350).
T13 construct: SH2dom.N-term. denotes SH2 domain closest to N-terminus of protein; made in house; host or cells: HEK293 (transient transfection, unpurified extract)
T13 sequence (P29350 4-100 limits assumed): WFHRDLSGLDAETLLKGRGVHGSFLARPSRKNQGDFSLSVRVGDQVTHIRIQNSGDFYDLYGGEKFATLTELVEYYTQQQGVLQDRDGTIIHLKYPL

For test [14], the target named is T14, SLP76 (Homo sapiens, UniProt Q13094).
T14 construct: made in house; host or cells: HEK293 (transient transfection), unpurified extract
T14 sequence (Q13094 1-533): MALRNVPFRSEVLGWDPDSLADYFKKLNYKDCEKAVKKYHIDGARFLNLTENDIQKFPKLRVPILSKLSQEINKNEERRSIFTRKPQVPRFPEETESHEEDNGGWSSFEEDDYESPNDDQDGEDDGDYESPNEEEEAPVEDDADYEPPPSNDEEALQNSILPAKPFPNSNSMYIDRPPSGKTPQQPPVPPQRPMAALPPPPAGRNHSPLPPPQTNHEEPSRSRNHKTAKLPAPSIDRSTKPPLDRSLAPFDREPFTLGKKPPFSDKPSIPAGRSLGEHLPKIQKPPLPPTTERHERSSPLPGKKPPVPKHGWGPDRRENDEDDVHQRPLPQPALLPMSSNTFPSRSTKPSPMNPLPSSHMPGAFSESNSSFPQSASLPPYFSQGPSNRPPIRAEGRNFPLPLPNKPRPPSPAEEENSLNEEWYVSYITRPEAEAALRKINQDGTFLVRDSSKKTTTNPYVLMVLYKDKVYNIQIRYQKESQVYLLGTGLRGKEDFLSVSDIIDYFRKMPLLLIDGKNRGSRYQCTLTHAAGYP

Test [15] addresses T15, SRC (Homo sapiens, UniProt P12931).
T15 construct: made in house; host or cells: HEK293 (transient transfection), unpurified extract

In test [16] the target is T16, STAP1 (Homo sapiens, UniProt Q9ULZ2).
T16 construct: made in house; host or cells: HEK293 (transient transfection), unpurified extract
T16 sequence (Q9ULZ2 1-295): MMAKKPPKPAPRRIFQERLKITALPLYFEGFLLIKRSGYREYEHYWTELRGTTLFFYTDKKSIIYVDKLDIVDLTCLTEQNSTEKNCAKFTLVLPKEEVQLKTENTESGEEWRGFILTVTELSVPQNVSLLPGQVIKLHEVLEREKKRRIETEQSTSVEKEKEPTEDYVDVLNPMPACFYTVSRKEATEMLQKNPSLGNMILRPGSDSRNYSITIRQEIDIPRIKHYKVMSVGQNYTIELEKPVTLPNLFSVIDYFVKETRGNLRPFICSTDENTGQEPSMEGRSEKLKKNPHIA

Setting [17] is: read-out: percent of DMSO vehicle control.

Structures are written as SMILES. Non-standard residues stand in square brackets, D forms with d. Residues, ends and D or L forms follow the SMILES beside them. pY = N[C@@H](Cc1ccc(OP(=O)(O)O)cc1)C(=O)O

Broadly, the Kd is the free concentration of one partner at which half of the binding sites on the other are occupied at equilibrium, for simple one-to-one binding. Low values mean tighter binding, high ones weaker binding.

T15 sequence (P12931 whole entry): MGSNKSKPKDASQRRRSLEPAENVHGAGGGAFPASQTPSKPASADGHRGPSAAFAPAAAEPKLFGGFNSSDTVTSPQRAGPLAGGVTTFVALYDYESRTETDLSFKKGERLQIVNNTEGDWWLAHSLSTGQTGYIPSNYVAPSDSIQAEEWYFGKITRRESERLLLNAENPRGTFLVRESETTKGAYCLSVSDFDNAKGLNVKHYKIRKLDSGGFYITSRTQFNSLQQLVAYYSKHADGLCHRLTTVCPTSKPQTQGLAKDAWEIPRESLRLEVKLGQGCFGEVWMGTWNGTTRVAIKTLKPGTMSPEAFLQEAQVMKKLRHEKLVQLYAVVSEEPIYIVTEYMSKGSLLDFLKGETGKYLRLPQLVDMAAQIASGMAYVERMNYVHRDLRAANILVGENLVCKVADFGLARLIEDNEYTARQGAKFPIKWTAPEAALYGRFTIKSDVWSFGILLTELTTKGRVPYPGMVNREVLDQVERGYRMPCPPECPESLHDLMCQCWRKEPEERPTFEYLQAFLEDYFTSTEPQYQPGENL
T11 sequence (P27986 333-428 limits assumed): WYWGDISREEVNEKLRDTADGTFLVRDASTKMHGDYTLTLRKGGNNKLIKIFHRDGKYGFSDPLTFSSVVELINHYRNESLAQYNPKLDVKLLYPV

Consider `CC(=O)N[C@@H](Cc1ccc(CP(=O)(O)O)cc1)C(=O)NC1(C(=O)N[C@@H](CC(N)=O)C(=O)NCCCc2c(O)ccc3ccccc23)CCCCC1` [CGP78850], for which the results for the Kd in test [1], in test [5] and in test [7] were 560 ± 360 nM, 3.4 nM and 1600 ± 350 nM, respectively. For the same molecule, in test [1] (setting [17]), the percent of DMSO control binding at 10 µM is 3.1 ± 1.7%. The remaining activity at 10 µM amounted to 117 ± 7.1% in test [2] (setting [17]); 117 ± 12.5% in [3] (setting [17]); 60 ± 12.1% in test [6] (setting [17]); 40% in test [9] (setting [17]); 109 ± 5.7% in test [11] (setting [17]); 104 ± 2.7% in [12] (setting [17]). In addition, the remaining activity at 10 µM in test [13] (setting [17]) came to 112 ± 9.8%; in test [14] (setting [17]) it was 44.1 ± 5.3%; in test [15] (setting [17]) it was 99.2 ± 4.1%; in test [16] (setting [17]), 113 ± 2.6%. The percent of DMSO vehicle control at 10 µM in test [4] (setting [17]) amounted to 88.3 ± 0.9%; in [7] (setting [17]), 8.1 ± 6.6%; in test [10] (setting [17]), 102 ± 2.3%. Besides, the “percent of DMSO vehicle control” value in test [5] came to 0.0±0.0%; in [8] it was 113.6±8.8%.

Take `CC[C@H](C)[C@H](NC(=O)[C@H](CCC(=O)O)NC(=O)[C@H](CCC(=O)O)NC(=O)[C@H](Cc1ccc(OP(=O)(O)O)cc1)NC(C)=O)C(=O)N[C@@H](CCC(=O)O)C(N)=O` [Ac-pYEEIE-NH2] (Ac-[pY]EEIE-NH2): the “percent of DMSO vehicle control” value in test [1] (primary screen, 10 μM) came to 106.1%; in test [2] (primary screen, 10 μM) it was 118.9%; in test [3] (primary screen, 10 μM), 101.4%; in [4] (primary screen, 10 μM) it was 114.0%; in test [5] it was 77.1%; in test [6] (primary screen, 10 μM), 82.2%. Besides, the “percent of DMSO vehicle control” value in test [7] (primary screen, 10 μM) was determined as 127.4%; in [8] it was 122.5%; in test [9] (primary screen, 10 μM) it was 38.1±2.4%; in test [10] (primary screen, 10 μM) it was 55.1%; in test [11] (primary screen, 10 μM), 87.7%; in test [12] (primary screen, 10 μM), 90.9%. Further, the “percent of DMSO vehicle control” value worked out at 163.9% in test [13] (primary screen, 10 μM); 42.0±2.1% in test [14] (primary screen, 10 μM); 68.6±4.6% in test [15] (primary screen, 10 μM); 101.0% in test [16] (primary screen, 10 μM).

Values taken from publication PMC12951562, “SH2scan: Mapping SH2 Domain-Ligand Binding Selectivity for Inhibitors and Degraders” (Journal of Medicinal Chemistry, 2026).
